Where a name gives a salt, the structure may show the parent alone.
How the values were obtained:
[1] = tested on: PFF induced HEK293 TREX α-syn A53T cells; test: Cytotoxicity by visual inspection of treated cells; format: cell-based, human; settings: 1 μM
Description: (§1) Targeted degradation of sarkosyl insoluble (SI) α-synuclein via exemplary bifunctional compounds was assessed by MJFF-14-6-4-2 conformation specific ELISA following treatment of PFF induced A53T α-synuclein overexpressing HEK293 cells with 1 μM exemplary compound compared to DMSO vehicle control. Degradation activity of the exemplary compounds of Table 2 is expressed as % DMSO control. […] However, the effect of bifunctional targeting degraders, shown in FIG. 5, required the intact E3 ligase binding domain.
(§2) Trex293 (doxycycline inducible) cells stably expressing human α-SYN A53T (monoclonal) were plated in poly-d-lysine coated T-75 tissue culture flasks (4.5×10e6 cells/flask) in DMEM with 10% tet-free FBS, 10 μg/ml blasticidin, and 400 μg/ml zeocin. After an overnight incubation, the cells were induced to express α-SYN by treatment with 1 μg/ml doxycycline (Dox) and exemplary bifunctional compound. After a 24 hour dox induction, the medium on the cells was changed to Opti-MEM followed by treatment with α-SYN pre-formed fibrils** (PFFs)(5 μg/flask) pre-complexed with Lipofectamine 2000 transfection reagent for 4 hours. After PFF treatment, the medium was changed back to DMEM with the supplements described above and exemplary bifunctional compound for 48 hours.
To assess targeted degradation of sarkosyl insoluble α-synuclein, exemplary bifunctional compounds designed to bind to oligomeric α-synuclein were tested at 1 μM in PFF induced HEK293 TREX α-syn A53T cells.

[2] = target: T1, sarkosyl insoluble (SI) α-synuclein (human α-SYN A53T) (Homo sapiens, UniProt P37840, A53T); test: MJFF-14-6-4-2 conformation specific ELISA of sarkosyl insoluble α-synuclein after compound treatment; format: cell-based; settings: 1 μM compound; protein remaining relative to DMSO control; PFF induced A53T α-synuclein overexpressing HEK293 cells; read-out: Protein Degradation at 1 μM
T1 construct: expressed in transfected cells
Description: as §1, §2
Cell pellets were harvested from each flask using 0.25% trypsin followed by spinning at 500×g for 5 minutes. Each pellet was resuspended in 1 ml cold buffer H [Buffer H-10 mM Tris, 1 mM EGTA, 0.8M NaCl, 10% sucrose, pH7.4 containing 1× protease and phosphatase inhibitors] containing protease and phosphatase inhibitors. The resuspended pellets were incubated on ice for 20 minutes followed by centrifugation at 27,200×g for 20 minutes at 4° C. The supernatants were adjusted to 1% sarkosyl (Sigma) and 1% 2-mercaptoethanol followed by incubation for 1 hour at 37° C. on an orbital shaker set to 400 rpm. The samples were then spun at 150,000×g for 35 minutes at room temperature. The supernatant was removed and saved as the soluble fraction and the insoluble pellet was resuspended in 25 μl tris-buffered saline (TBS). Protein concentrations were determined by NanoDrop, and normalized protein concentrations were analyzed by WES capillary electrophoresis as well as an α-SYN oligomer ELISA.
Recombinant human α-SYN was purchased from Proteos. 1 mg aliquots were supplied at 10 mg/ml in 10 mM Tris, 50 mM NaCl, pH7.6. The aliquot was thawed on ice followed by centrifugation at 4° C. for 10 minutes at 12,000×g to pellet any insoluble material. The supernatant was removed and quantitated on a NanoDrop (A280) using Beer's Law (ε=5960 M-1 cm-1). The concentration was adjusted to 5 mg/ml in PBS followed by vortexing for 3 seconds to mix contents. The mixture was incubated in an orbital shaker set to 37° C. at 1,000 rpm for 7 days followed by aliquoting into individual use vials. Prior to addition to cells, an aliquot was thawed at room temperature, then diluted to 1 mg/ml with phosphate-buffered saline (PBS) followed by sonication for 1 minute with a probe sonicator (output 1; 90% duty cycle) in a chem hood.
Coming Costar high bind black well plates were coated with MJFR 14-6-4-2 (Abcam) at 1 μg/ml for 1 hour at 37° C. followed by washing with 1×TBS+0.1% tween-20 (TBS-T) then blocking with 3% bovine serum albumin (BSA) in TBS. After re-washing, samples were added after dilution in diluent (1% BSA/TBS-T). Non-sonicated PFF was used to generate a standard curve. The plates were incubated with sample overnight at 4° C. with shaking. The following day alkaline phosphatase (AP) conjugated MJFR 14-6-4-2 was added to the plate without washing followed by incubation at room temperature for 1 hour with shaking or rocking. The plates were then re-washed and substrate (CDP star alkaline phosphatase detection reagent) was added followed by a 30 minute incubation at room temperature. The plate was read on a luminescence plate reader. The counts were log transformed and read off the standard curve. […]

Row | SMILES | Cytotoxicity at the concentration tested [1] | remaining activity at 1 µM [2] [%] | other results
1 | O=C1CCC(N2C(=O)c3ccc(OCCOCCOCCOCCOc4ccc5c(c4)Sc4cc([N+](=O)[O-])ccc4N5)cc3C2=O)C(=O)N1 (stereo not shown) [Exemplary Compound 13, 2-(2,6-dioxo-3-piperidyl)-5-[2-[2-[2-[2-[(7-nitro-10H-phenothiazin-3-yl)oxy]ethoxy]ethoxy]ethoxy]ethoxy]isoindoline-1,3-dione] | cytotoxicity | – | Cytotoxicity at the concentration tested ([1]; listed as 13): cytotoxic
2 | CNc1ccc(-c2nc3ccc(OCCOCCOCCOCCOCCOCCOCC(=O)N[C@H](C(=O)N4C[C@H](O)C[C@H]4C(=O)N[C@@H](C)c4ccc(-c5scnc5C)cc4)C(C)(C)C)cc3s2)cc1 [Exemplary Compound 5, (2S,4R)-1-((S)-2-(tert-butyl)-23-((2-(4-(methylamino)phenyl)benzo[d]thiazol-6-yl)oxy)-4-oxo-6,9,12,15,18,21-hexaoxa-3-azatricosanoyl)-4-hydroxy-N-((S)-1-(4-(4-methylthiazol-5-yl)phenyl)ethyl)pyrrolidine-2-carboxamide] | without any visual impact to cell health | < 35 | –
3 | Cc1ncsc1-c1ccc([C@H](C)NC(=O)[C@@H]2C[C@@H](O)CN2C(=O)[C@@H](NC(=O)COCCOCCOc2ccc(CN3C(=O)C(=CC=Cc4ccc([N+](=O)[O-])cc4)c4ccccc43)cc2)C(C)(C)C)cc1 (single isomer, unassigned) [Exemplary Compound 6] | without any visual impact to cell health | – | –
4 | COc1ccc2nc(-c3ccc(N4CC(OC5CCN(CCCCCOc6ccc7c(c6)C(=O)N(C6CCC(=O)NC6=O)C7=O)CC5)C4)cc3)sc2c1 (stereo not shown) [Exemplary Compound 25, 2-(2,6-dioxopiperidin-3-yl)-5-([5-[4-([1-[4-(6-methoxy-1,3-benzothiazol-2-yl)phenyl]azetidin-3-yl]oxy)piperidin-1-yl]pentyl]oxy)-2,3-dihydro-1H-isoindole-1,3-dione] | cytotoxicity | > 120 | Cytotoxicity at the concentration tested ([1]; listed as 25): cytotoxic
5 | CNc1ccc(-c2nc3ccc(OCCOCCOCCOCCOCC(=O)N[C@H](C(=O)N4C[C@H](O)C[C@H]4C(=O)N[C@@H](C)c4ccc(-c5scnc5C)cc4)C(C)(C)C)cc3s2)cc1 [Exemplary Compound 3, (2S,4R)-1-((S)-2-(tert-butyl)-17-((2-(4-(methylamino)phenyl)benzo[d]thiazol-6-yl)oxy)-4-oxo-6,9,12,15-tetraoxa-3-azaheptadecanoyl)-4-hydroxy-N-((S)-1-(4-(4-methylthiazol-5-yl)phenyl)ethyl)pyrrolidine-2-carboxamide] | – | 35 to 70 | –
6 | CN(C)c1ccc2c(c1)Sc1cc(OCCOCCOCCOCCOCCOc3ccc4c(c3)C(=O)N(C3CCC(=O)NC3=O)C4=O)ccc1N2 (stereo not shown) [Exemplary Compound 21, 5-((14-((7-(dimethylamino)-10H-phenothiazin-3-yl)oxy)-3,6,9,12-tetraoxatetradecyl)oxy)-2-(2,6-dioxopiperidin-3-yl)isoindoline-1,3-dione] | – | 35 to 70 | –
7 | O=C1CCC(N2C(=O)c3ccc(OCCCCCN4CCC(OC5CN(CCCN6c7ccccc7Sc7ccccc76)C5)CC4)cc3C2=O)C(=O)N1 (stereo not shown) [Exemplary Compound 22, 2-(2,6-dioxo-3-piperidyl)-5-[5-[4-[1-(3-phenothiazin-10-ylpropyl)azetidin-3-yl]oxy-1-piperidyl]pentoxy]isoindoline-1,3-dione] | – | 35 to 70 | –
8 | Cc1ncsc1-c1ccc([C@H](C)NC(=O)[C@@H]2C[C@@H](O)CN2C(=O)[C@@H](NC(=O)COCCOCCOCCOc2ccc3c(c2)Sc2cc([N+](=O)[O-])ccc2N3)C(C)(C)C)cc1 [Exemplary Compound 9, (2S,4R)-1-((S)-2-(tert-butyl)-14-((7-nitro-10H-phenothiazin-3-yl)oxy)-4-oxo-6,9,12-trioxa-3-azatetradecanoyl)-4-hydroxy-N-((S)-1-(4-(4-methylthiazol-5-yl)phenyl)ethyl)pyrrolidine-2-carboxamide] | cytotoxicity | > 120 | Cytotoxicity at the concentration tested ([1]; listed as 9): cytotoxic
9 | CNc1ccc(-c2nc3ccc(OCCOCCOCCOCC(=O)N[C@H](C(=O)N4C[C@H](O)C[C@H]4C(=O)N[C@@H](C)c4ccc(-c5scnc5C)cc4)C(C)(C)C)cc3s2)cc1 [Exemplary Compound 2, (2S,4R)-1-((S)-2-(tert-butyl)-14-((2-(4-(methylamino)phenyl)benzo[d]thiazol-6-yl)oxy)-4-oxo-6,9,12-trioxa-3-azatetradecanoyl)-4-hydroxy-N—((S)-1-(4-(4-methylthiazol-5-yl)phenyl)ethyl)pyrrolidine-2-carboxamide] | without any visual impact to cell health | 35 to 70 | –
10 | O=C1CCC(N2C(=O)c3ccc(OCCOCCOCCOCCOCCOc4ccc5c(c4)Sc4cc([N+](=O)[O-])ccc4N5)cc3C2=O)C(=O)N1 (stereo not shown) [Exemplary Compound 14, 2-(2,6-dioxopiperidin-3-yl)-5-((14-((7-nitro-10H-phenothiazin-3-yl)oxy)-3,6,9,12-tetraoxatetradecyl)oxy) isoindoline-1,3-dione] | – | 35 to 70 | –
11 | COc1cc(/C=C/c2ccc3cc(OCCOCCOCCOCC(=O)N[C@H](C(=O)N4C[C@H](O)C[C@H]4C(=O)N[C@@H](C)c4ccc(-c5scnc5C)cc4)C(C)(C)C)ccc3n2)ccn1 [Exemplary Compound 35, (2S,4R)-1-((S)-2-(tert-butyl)-14-((2-((E)-2-(2-methoxypyridin-4-yl)vinyl)quinolin-6-yl)oxy)-4-oxo-6,9,12-trioxa-3-azatetradecanoyl)-4-hydroxy-N—((S)-1-(4-(4-methylthiazol-5-yl)phenyl)ethyl)pyrrolidine-2-carboxamide] | – | 35 to 70 | –
12 | Cc1ncsc1-c1ccc([C@H](C)NC(=O)[C@@H]2C[C@@H](O)CN2C(=O)[C@@H](NC(=O)COCCOCCOCCOCCOCCOCCOc2ccc3c(c2)Sc2cc([N+](=O)[O-])ccc2N3)C(C)(C)C)cc1 [Exemplary Compound 12, (2S,4R)-1-((S)-2-(tert-butyl)-23-((7-nitro-10H-phenothiazin-3-yl)oxy)-4-oxo-6,9,12,15,18,21-hexaoxa-3-azatricosanoyl)-4-hydroxy-N-((S)-1-(4-(4-methylthiazol-5-yl)phenyl)ethyl)pyrrolidine-2-carboxamide] | cytotoxicity | > 120 | Cytotoxicity at the concentration tested ([1]; listed as 12): cytotoxic
13 | O=C1CCC(N2C(=O)c3ccc(N4CCN(CCCO[C@H]5C[C@H](Oc6ccc7c(c6)Sc6cc([N+](=O)[O-])ccc6N7)C5)CC4)cc3C2=O)C(=O)N1 (stereo partly shown) [Exemplary Compound 30, 2-(2,6-dioxo-3-piperidyl)-5-[4-[3-[3-[(7-nitro-10H-phenothiazin-3-yl)oxy]cyclobutoxy]propyl]piperazin-1-yl]isoindoline-1,3-dione formate] | – | 35 to 70 | –

Reference: patent US12594264B2, “Modulators of alpha-synuclein proteolysis and associated methods of use” (Arvinas Operations, Inc., priority 2018, dated 2026)
